According to patent publication US10792301B2, “Therapeutic polysaccharide midi-GAGR and related materials and methods” (priority 2015, dated 2020):

How the values were obtained:
Format in all cases: cell-based
[1] = test system: Differentiated dopaminergic PC12 cells; assay: LIVE/DEAD viability of differentiated PC12 cells exposed to 6-OHDA; details: 1 μM for 6 h, then 30 μM 6-OHDA for 24 h
Protocol: Differentiated dopaminergic PC12 cells and primary mouse embryonic cortical neurons (E17, DIV14) were treated with mock (H2O) or 1 μM of dextran, alginate, HA-GAGR or midi-GAGR for 6 h and insulated by oxidative stressors (30 μM 6-OHDA [PC12] and 10 μM amyloid β peptide [cortical neurons]) for 24 h.

[2] = test system: phosphorylated CREB in differentiated PC12 cells; assay: Nuclear p-CREB immunostaining in PC12 cells; details: 1 μM, 24 h
Protocol: (§1) Differentiated PC12 cells and mouse embryonic cortical neurons (E17, DIV14) were treated with mock, dextran, alginate, HA-GAGR or midi-GAGR (1 μM) for 24 h and fixed in 3.7% paraformaldehyde. The fixed cells and neurons were immunostained with antibodies against α-tubulin and phosopho-CREB (p-CREB) along with DAPI (nucleus).

[3] = test system: phosphorylated CREB in mouse embryonic cortical neurons; assay: Nuclear p-CREB immunostaining in cortical neurons (Example 2); details: 1 μM, 24 h
Protocol: as §1

[4] = test system: Mouse cortical neurons (E17, DIV5); assay: LIVE/DEAD assay, pre-treated mouse cortical neurons with 4HNE, H2O2 or Aβ42; details: pre-treatment 24 h (1 μM midi-GAGR, dextran, alginate; 0.1 μM LA-GAGR; 0.01 μM HA-GAGR)
From the text: The protective effect of polysaccharides on primary cortical neurons from 4HNE, H2O2, and Aβ42 peptide (Sigma) was examined using LIVE/DEAD® Viability/Cytotoxicity Assay Kit (Life Technologies). Female pregnant mice (BALB/C, E17, Charles River Laboratories International, Inc.) or female pregnant SD rats (E17, bred in house) were anesthetized and dissected to obtain 8-9 embryos per animal. Cortical neurons were isolated from embryonic brains and differentiated on poly-L-lysine-coated coverslips in B27/neurobasal medium. For drug treatment before free radical treatment, mouse cortical neurons (5 days in vitro [DIV5.]) were treated with vehicle (H2O), 1 μM of 5 kD dextran (Sigma), alginate (Sigma), midi-GAGR, 0.01 μM of high acyl gellan gum (HA-GAGR, CPKelco Co.), or 0.1 μM of LA-GAGR for 24 h and then treated with 10 μM 4HNE or 50 μM H2O2 for 24 h, or 2 μM A[…]42 peptide for 48 h prior to viability/cytotoxicity assay. For drug co-treatment with free radicals, rat cortical neurons (DIV5) were treated with 1 μM of dextran, alginate, or midi-GAGR, 0.01 μM of HA-GAGR, or 0.1 μM of LA-GAGR along with either 10 μM 4HNE (24 h) or 2 μM Aβ42 peptide (48 h). To examine the extent to which midi-GAGR-mediated neuroprotection depends on FGFR1, rat cortical neurons (E17, DIV5) were pre-treated with 4 μM SU5402 (Sigma) for 6 h and treated with 10 μM 4HNE and either vehicle or 1 μM midi-GAGR for 24 h prior to cell viability/cytotoxicity assay. As controls, neurons were treated with SU5402, midi-GAGR, 4HNE, 4HNE plus midi-GAGR, or SU5402 plus midi-GAGR.
For cell viability/cytotoxicity measurement, neurons on glass coverslips were incubated in 1×PBS containing 2 μM calcein AM (live cells: green) and 4 μM ethidium homodimer-1 (dead cells: red) for 10 min at 37° C. Immediately thereafter, neurons were imaged by 10×objective using a fluorescence Olympus IX71 microscope (Olympus America Inc., Center Valley, Pa.) and, for the acquisition of high-quality images, using TCS SP5 multi-photon laser scanning confocal microscope.
Midi-GAGR attenuated neurite atrophy caused by free reactive radicals. It is now shown herein that midi-GAGR protect neurons from the death caused by free radical insults. The extent to which midi-GAGR protects the primary culture of rodent cortical neurons from 4HNE and H2O2 was determined. In addition to the radicals, amyloid β peptide (Aβ42) was also tested. Aβ42 peptide is a major causative factor that causes oxidative stress and neuron death. Mouse cortical neurons (E17, DIV5) were treated with 10 μM 4HNE (24 h), 50 μM H2O2 (24 h), or 2 μM Aβ42 peptide (48 h) after the treatment of the neurons with vehicle (H2O), midi-GAGR (1 μM), dextran (1 μM), alginate (1 μM), LA-GAGR (0.1 μM), or HA-GAGR (0.01 μM) for 24 h. The concentrations of 4HNE, H2O2, and Aβ42 peptide were chosen according to their patho-physiological concentrations. The concentrations of LA-GAGR and HA-GAGR were chosen because, within the same volume, the total numbers of sugar units in the polysaccharides at the concentrations are close to that of 1 μM midi-GAGR. The viability of neurons was assessed using LIVE/DEAD® Viability/Cytotoxicity Assay Kit in which membrane-permeant calcein AM is cleaved by esterase in live cells, thus yielding green fluorescence, and membrane-impermeant ethidium homodimer-1 stains the nucleic acids of plasma membrane-compromised cells with red fluorescence. The numbers of green (live) and red (dead) neurons in each condition were counted using Metamorph. Although the intensities of green fluorescent signals in neurons treated with either free radicals or Aβ42 peptide were weak, the neurons were included in the counting. About 8-9% of vehicle-treated neurons died during the process of live/dead cell assay (FIGS. 23A-23F, FIGS. 24A-24C).

For dextran, which 6-OHDA-induced cell death [1] is on record?
Its 6-OHDA-induced cell death is “did not”.

What about the “increase of the levels of nuclear p-CREB” value [2] of the same substance?
The value was “not significantly increased”.

And the “increase of the levels of nuclear p-CREB” value [3]?
Its value is “not significantly increased”.

What about the “neuron death after Aβ42 peptide” value ([4]; 2 μM Aβ42 48 h, vehicle about 30%) of the same substance?
The value was “did not decrease”.

And the “neuron death after H2O2” value ([4]; 50 μM H2O2 24 h, vehicle ~25%)?
The value was “did not reduce”.
